# Measured values as given in US20250099415A1, “Methods for Inhibiting the Progression of Oxidative Retinal Disease” (BioJiva LLC, priority 2021, published 2025).
# Tested on: macular degeneration patients
# Assay: Clinical study of geographic atrophy progression in macular degeneration patients, treated versus placebo cohort
# Type: in vivo, human
# Description: This example illustrates the reduction in the rate of macular degeneration progression in a cohort of patients treated with deuterated docosahexaenoic acid ethyl ester similar to that of Example 1, as compared to a cohort of placebo patients. Specifically, the treated cohort […]. The patients are maintained on this dosing regimen throughout the clinical study. Periodic measurements of further geographic atrophy development are obtained.
# Dosing is continued for 6 or 12, or 18 or 24 months. At that time, the average extent of geographic atrophy progression is measured for each cohort. The efficacy of the treatment protocol is evaluated by comparing the extent of geographic atrophy progression in a treated population against a placebo population. […]
# Alternatively, the rate of disease progression for an individual patient can be assessed by the following: • a) determine the rate of disease progression for said individual patient by measuring the extent of geographic atrophy in the patient's retina at the start of therapy and at 6, 12, 18 or 24 months post start of therapy and assigning a […] value “D” to that differential; • b) determine the average rate of disease progression for a cohort of patients treated with placebo (safflower oil) by measuring the extent of geographic atrophy in each of the patient's retina at the start of therapy and at 6, 12, 18 or 24 months post start of therapy, determining the difference between the extent of atrophy at the start of therapy and at the later time point, and then obtaining an average for that differential and assigning a second value designated as “E” to that average differential; • c) calculating the difference between D and E and assign “F” to that value (e.g, E−D=F); • d) assign a positive value to “F” if E is greater than D; • e) assign a negative value to “F” if E is less than D; and • f) divide F by E and multiply by 100 [(F/E)×100]. […]
# [1] = 6, 12, 18 or 24 months post start of therapy, placebo safflower oil
substance,measurement,setting,value
Deuterated Docosahexaenoic Acid Ethyl Ester,"reduction in the rate of disease progression (extent of geographic atrophy progression, treated population against placebo population)","250 mg/day, dosing for 6 or 12, or 18 or 24 months, versus safflower oil placebo cohort",statistically significant reduction in the rate of disease progression
same,"percent reduction in geographic atrophy, individual treated patient vs placebo cohort [(F/E)×100]",[1],positive percent reduction in geographic atrophy that is statistically significant
same,"percent reduction in geographic atrophy, treated cohort vs placebo cohort [(C/B)×100]",[1],positive percent reduction in geographic atrophy that is statistically significant
